Assay results from article PMC3025356, “Mechanism of the Ca^2+-Dependent Interaction between S100A4 and Tail Fragments of Nonmuscle Myosin Heavy Chain IIA” (Journal of Molecular Biology, 2011).
Like-named read-outs stand apart in the source and are kept apart here.

Legend:
[1] = Stopped-flow Quin-2 fluorescence, Ca^2+ dissociation from / binding to S100A4 constructs (no target); settings: single exponential fit, no target
Excerpt: In order to increase the signal-to-noise ratio of the Ca^2+ dissociation transients, we used Quin-2 as combined fluorescent indicator and high-affinity chelator.[19,20] These measurements confirmed that Ca^2+ dissociated from wild-type protein with a rate constant of 16 s^− 1 (Fig. 3a; cf. 20 s^− 1 for the tyrosine signal). Given the poor signal-to-noise ratio of the tyrosine signal, the difference is barely significant but may reflect the fact that the Quin-2 signal represents at least a two-step sequential reaction (Ca^2+ dissociation from S100AS4, followed by rapid binding to Quin-2).
Fig. 3 (a) Dissociation of Ca^2+ from wild-type S100A4 (black), E33Q mutant (blue), and D63N mutant (red), as monitored by Quin-2 fluorescence. […] The records for the mutants were vertically offset for clarity. (b) Ca^2+ binding to S100A4 as determined from the amplitude of the resolved transient (k ≈ 20 s^− 1) when 6.5 μM S100A4 was preincubated with various added [Ca^2+] and then mixed with 100 μM Quin-2. The amplitude was converted into a bound concentration from an independent calibration using the same Quin-2 solution and known free [Ca^2+]. […] While either model could account for the data, the measured stoichiometry from ITC (Table 1) favors the cooperative model.
(§1) Stopped-flow measurements were carried out using an SX18-MV apparatus (Applied Photophysics Ltd., Leatherhead, UK) with a dead time of 1.5 ms.[40] Records were generally captured on a logarithmic time base. Absorption (turbidity) measurements were usually recorded using a 10-mm pathlength, while fluorescence was recorded with a 2-mm pathlength for excitation and emission. The stated concentrations of components refer to the reaction chamber after mixing, unless otherwise indicated. Tyrosine fluorescence was excited at 280 nm, and the emission was collected through a UG11 bandpass filter plus a 305-nm longpass filter.[18] Fluorescein fluorescence was excited at 480 nm, and the emission was detected through a 515-nm longpass filter. Quin-2 fluorescence was measured by excitation at 336 nm, and emission was collected with a 455-nm longpass filter. For simultaneous recording of light scatter, a second channel was monitored through a UG11 filter. Rate constants were obtained by fitting to single-exponential or double-exponential functions using Kaleidagraph (Synergy Software) or Applied Photophysics Pro-Data software. Modeling of kinetic schemes was performed using Berkeley Madonna software.

[2] = Isothermal titration calorimetry of Ca^2+ binding to S100A4 constructs
Experimental: Fig. 2 ITC records for Ca^2+ binding to S100A4 constructs: (a) 75 μM wild type at 30 °C; (b) 75 μM wild type at 10 °C; (c) 75 μM E33Q construct at 30 °C; (d) 300 μM D63N construct at 30 °C. For mutant constructs data at 10 °C, see Fig. S1. All preparations were dialysed against the same buffer of 20 mM NaCl, 10 mM Hepes, and 2 mM DTT (pH 7.5).
ITC data were collected using a VP-ITC microcalorimeter (MicroCal Ltd., Northampton, MA) and analysed by fitting to a single-site binding equation or a two-site binding equation using MicroCal Origin software.

[3] = Stopped-flow tyrosine fluorescence, Ca^2+ dissociation from S100A4 constructs; type: binding
Experimental: as §1
Dissociation of Ca2+ from wild type S100A4 (black), Y19F mutant (blue) and Y75F mutant (red) monitored by tyrosine fluorescence. 13 M of each S100A4 construct plus 100 µM Ca2+ was mixed with 200 µM EGTA (reaction chamber concentrations) and the tyrosine fluorescence monitored. The buffer was 20 mM NaCl, 10 mM HEPES, 2 mM DTT at pH 7.5 and 20 °C. Fits to a single exponential function yielded rate constants of 20 s-1, 113 s-1 and 45 s-1 for wild-type, Y19F mutant and Y75F mutant respectively. (d) Dissociation of Ca2+ from wild type S100A4 (black), E33Q mutant (blue) and D63N mutant (red) monitored by tyrosine fluorescence. 13 M of each S100A4 construct plus 15 M Ca2+ was mixed with 200 M EGTA (reaction chamber concentrations) and the tyrosine fluorescence monitored. Fits to a single exponential function yielded rate constants of 22 s-1 and 49 s-1 for wild-type and E33Q construct respectively, while that […]
The records for the mutants were vertically offset for clarity in both […]

[4] = target: T1, Δ10-S100A4 (Homo sapiens, UniProt P26447); test: NMR ^1H,^15N HSQC titration of Δ10-S100A4 with myosin peptides; type: binding
T1 construct: truncated Δ10-S100A4, which lacks 10 C-terminal residues; made in house; host or cells: Escherichia coli (M9 minimal medium, 15N labelling)

[5] = 10 °C and 30 °C, read-out: Kd for Ca^2+
[6] = 10 °C, 75 μM protein (D63N 300 μM), 20 mM NaCl, 10 mM Hepes, 2 mM DTT, pH 7.5
[7] = 30 °C, 75 μM protein (D63N 300 μM), 20 mM NaCl, 10 mM Hepes, 2 mM DTT, pH 7.5
[8] = first site, Ca^2+ binding, 30 °C, 75 μM protein (D63N 300 μM), 20 mM NaCl, 10 mM Hepes, 2 mM DTT, pH 7.5, read-out: K1d
[9] = first site, 10 °C, wild type and E33Q cooperative, read-out: K1d
[10] = 13 μM S100A4 + 100 μM Ca^2+ mixed with 200 μM EGTA, 20 mM NaCl, 10 mM Hepes, 2 mM DTT, pH 7.5, 20 °C

T1 sequence (P26447 1-91 limits assumed, stated change not applied): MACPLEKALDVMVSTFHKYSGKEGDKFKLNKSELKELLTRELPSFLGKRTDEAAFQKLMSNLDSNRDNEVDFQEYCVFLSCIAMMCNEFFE

Ca^2+ dissociation rate constant (Quin-2) [1] [s^− 1]	Kd [2, 5] [µM]	n1 (Ca^2+ per monomer) [2, 6] [Ca^2+ per monomer]	n1 (Ca^2+ per monomer) [2, 7] [Ca^2+ per monomer]	Kd [2, 8] [µM]	Kd [2, 9] [µM]	Substance	Ca^2+ dissociation rate constant (tyrosine) [3, 10] [s^− 1]	other results
35	1 to 10	0.96 ± 0.09	0.33 ± 0.03	10.9 ± 1.9	~1	E33Q: S100A4 mutant compromised in the EF1 Ca^2+ binding loop	–	Ca^2+ dissociation rate constant (tyrosine) ([3]; 13 μM S100A4 + 15 μM Ca^2+ mixed with 200 μM EGTA): 49 s^− 1
–	–	–	–	–	–	Δ10-S100A4: truncated S100A4, lacks 10 C-terminal residues	–	interaction in the absence of Ca^2+ ([4]; absence of Ca^2+): No interaction was observed
–	–	–	–	–	–	Y75F: S100A4 mutant, tyrosine 75 to phenylalanine	45	–
500	65 to 70	0.44 ± 0.01	0.54 ± 0.01	68 ± 1	65 ± 3	D63N: S100A4 mutant compromised in the EF2 Ca^2+ binding loop	–	reduction in Ca^2+ affinity ([2]; compromised EF2 site, as suggested by ITC): 30 -fold
–	–	–	–	–	–	Y19F: S100A4 mutant, tyrosine 19 to phenylalanine	113	–
–	–	–	–	–	–	M15^C: myosin peptide G1924-G1938, acetylated N-terminus, amidated C-terminus (Ac-GDLPFVVPRRMARKG-NH2)	–	NMR exchange regime ([4]; 0.2 mM Δ10-S100A4, Ca^2+, 35 °C): fast exchange; affinity by NMR ([4]; 0.2 mM Δ10-S100A4, up to 9-fold molar excess of peptide): too low to be measured by NMR
